Test results as given in US8927599B2, “Use of statins as anticonvulsants, antiepileptics and neuroprotectors” (Neuron Biopharma, S.A., priority 2008, dated 2015).
Like-named read-outs stand apart in the source and are kept apart here.

Columns and labels:
[1] = system: male mice of the FVB/N strain inoculated with kainate (KA); test: Kainate-induced convulsions, epilepsy level on the Racine scale and latency (Example 1); assay type: in vivo; settings: for time of the onset of the first convulsion (latency): KA 30 mg/kg i.p., FIG. 1
Method: (§1) All the animals included during the experimental process were 16 week old male mice of the FVB/N strain [Taconic Farms, Inc. (www.taconic.com)]. The experiments were carried out strictly following the Guidance on the Operation of Animals (Scientific Procedures, Act. 1986). The animals had their respective quarantine period and were treated with maximum precaution to minimize possible contaminations during inoculations and handling.
The animals, distributed into different groups, were intraperitoneally inoculated with 30 mg/kg of kainate (KA) dissolved in phosphate buffer saline (PBS), according to the following protocol: • seven animals were pretreated, at 24 and 0.5 hours before the inoculation with KA, with PBS by means of intraperitoneal (i.p.) injection; • six animals were pretreated, at 24 and 0.5 hours before the inoculation with KA, with simvastatin at a dose of 50 mg/kg by means of i.p. injection; and • four animals were pretreated, at 24 and 0.5 hours before the inoculation with KA, with DNQX (a specific inhibitor of KA receptors) at a dose of 30 mg/kg, by means of i.p. injection.
(§2) After the inoculation with KA, the animals were individually housed in cages to monitor them. The maximum epilepsy level of the animals was recorded every 10 minutes during the observation according to the Racine scale and for at least 120 minutes post-inoculation (m.p.i.).

[2] = system: male mice of the FVB/N strain inoculated with kainate (KA); test: Kainate-induced convulsions and status epilepticus, lovastatin (Example 10); assay type: in vivo; settings: KA 25 mg/kg i.p., 50 mg/kg i.p. at 24 and 0.5 h before KA
Method: as §1, with “12” for “16”
The mice, distributed into different groups, were intraperitoneally inoculated with 25 mg/kg of KA dissolved in PBS, according to the following protocol: • five mice were pretreated, at 24 and 0.5 hours before the inoculation with KA, with PBS by means of intraperitoneal (i.p.) injection; and • five animals were pretreated, at 24 and 0.5 hours before the inoculation with KA, with lovastatin at a dose of 50 mg/kg by means of i.p. injection
as §2, with “(m.p.i.). Comparative studies of the epilepsy levels between the treatment with PBS and with lovastatin (FIG. 12) were subsequently conducted. […]” for “(m.p.i.).”

[3] = system: patient; settings: cited from earlier work
[4] = system: male mice of the FVB/N strain inoculated with kainate (KA); test: Effect of the route of administration, kainate model (Example 3); assay type: in vivo; settings: FIG. 5
Method: As shown in Examples 1 and 2, simvastatin has antiepileptic properties and such properties depend on the dose at which said compound is administered. Due to these observations, the inventors decided to investigate if the antiepileptic effect of simvastatin would also be modulated by the route of administration. All the animals included during the experimental process were 16 week old male mice of the FVB/N strain. The experiments were carried out strictly following the Guidance on the Operation of Animals (Scientific Procedures, Act. 1986). The animals had their respective quarantine period and were treated with maximum precaution to minimize possible contaminations during inoculations and handling.
The animals, distributed into different groups, were intraperitoneally inoculated with 25 mg/kg of KA dissolved in PBS, according to the following protocol: • three animals were pretreated, at 24 and 0.5 hours before the inoculation with KA, with simvastatin at a dose of 50 mg/kg by means of direct oral administration; and • two animals were pretreated, at 24 and 0.5 hours before the inoculation with KA, with simvastatin at a dose of 50 mg/kg by means of i.p. injection
as §2

In the case of `O=[N+]([O-])c1cc2nc(O)c(O)nc2cc1[N+](=O)[O-]` [DNQX], the “time of the onset of the first convulsion (latency)” value ([1]; pretreated 30 mg/kg i.p. at 24 and 0.5 h before KA) is reported as 23.3 ± 7.6 min and the “epilepsy level (Racine scale) versus PBS” value ([1]; after 30 m.p.i. of KA 30 mg/kg, 30 mg/kg i.p. pretreatment, FIG. 3) is reported as “prevents the increase of the epileptic levels”.
With `CC[C@H](C)C(=O)O[C@H]1C[C@@H](C)C=C2C=C[C@H](C)[C@H](CC[C@@H]3C[C@@H](O)CC(=O)O3)[C@H]21` [lovastatin] the “entrance into status epilepticus” value ([2]; PBS 3 of 5) was 0 of 5 and the “epilepsy symptoms (Racine scale) at the end of the observation time” value ([2]; PBS+KA about 3, p-value=0.00059, FIG. 12) was “completely reduced the epilepsy symptoms”.
For `CC(C)c1nc(N(C)S(C)(=O)=O)nc(-c2ccc(F)cc2)c1/C=C/[C@@H](O)C[C@@H](O)CC(=O)O` [rosuvastatin], the “adverse event after administration to a patient” value ([3]; Lorenzoni et al., Arq Neuropsiquiatr. 2007) is listed as “severe rhabdomyolysis with convulsions and coma”.
In the case of `CCC(C)(C)C(=O)O[C@H]1C[C@@H](C)C=C2C=C[C@H](C)[C@H](CC[C@@H]3C[C@@H](O)CC(=O)O3)[C@H]21` [simvastatin], the “time of the onset of the first convulsion (latency)” value ([1]; pretreated 50 mg/kg i.p. at 24 and 0.5 h before KA) is reported as 50.0 ± 11.8 min, the “mean epilepsy level (Racine scale)” value ([1]; after 30 m.p.i. of KA 30 mg/kg, 50 mg/kg i.p. pretreatment, FIG. 2) is reported as at most 4 and the “epileptic level (Racine scale)” value ([4]; 50 mg/kg direct oral administration, reached at 100 m.p.i. and maintained until 120 m.p.i., KA 25 mg/kg) is reported as 2. For the same compound, the “epileptic level (Racine scale)” value ([4]; 50 mg/kg i.p., 70 m.p.i. of KA 25 mg/kg) was 2 and the “epileptic level (Racine scale)” value ([4]; 50 mg/kg i.p., 120 m.p.i. of KA 25 mg/kg) was 1.
In the case of `CC(C)n1c(/C=C/C(O)CC(O)CC(=O)O)c(-c2ccc(F)cc2)c2ccccc21` (centres unmarked) [fluvastatin], the “adverse event after administration to a patient” value ([3]; patient with catastrophic antiphospholipid syndrome, Miesbach et al., J Neurol Sci. 2005) is given as “focal convulsions”.
